Assay results: patent US20230364111A1 (priority 2020, published 2023)
Entries after “also recorded” stand apart in the source; their conditions may differ. Read-outs that look alike come from different tables or passages of the source.

Columns and labels:
[1] = tested on: SARS-CoV-2 Wk-521 strain; assay: SARS-CoV-2 infection assay, viral RNA in culture supernatant (VeroE6/TMPRSS2 cells); type: cell-based; conditions: for anti-SARS-CoV-2 activity: cell-based assay, VeroE6/TMPRSS2; for SARS-CoV-2 propagation in cultured cells: statement in words; for viral RNA in the culture supernatant: natural oxysterols up to 30 μM, semi-synthetic up to 15 μM; for production of viral RNA with signaling pathway inhibitors: 10 μM
[2] = tested on: VeroE6/TMPRSS2 cells
[3] = tested on: SARS-CoV-2; assay: Time of addition assay, SARS-CoV-2 viral RNA; type: cell-based; conditions: 15 μM RDV, 15 μM CLQ, 10 μM Oxy210, 10 μM Oxy133
[4] = tested on: SARS-CoV-2; assay: SARS-CoV-2-induced cytopathic effect (CPE) in VeroE6/TMPRSS2 cells; type: cell-based; conditions: for virus-induced CPE: 48 h post-inoculation, 10 μM RDV, 30 μM cholesterol, 30 μM 7-KC, 10 μM Oxy133, 10 μM Oxy210, MOI 0.001; for SARS-CoV-2-induced cytopathic effect (CPE): remdesivir 20 uM, 7-ketocholesterol 40 uM, 27-hydroxycholesterol 20 uM
[5] = tested on: SARS-CoV-2; type: cell-based
[6] = tested on: SARS-CoV-2 (isolate USA WA1/2020); assay: SARS-CoV-2 infection of Calu-3 cells (dsRNA+ cells, automated microscopy); type: cell-based; conditions: Severe acute respiratory syndrome coronavirus 2, Calu-3, 48 h
Method: FIGS. 12A-12C depict dose-response curves for Oxy232. (FIG. 12A) Secreted viral RNA in the VeroE6 culture supernatant 24 h post-inoculation was quantified by real-time RT-PCR. Cell viability of Oxy232 treated cells evaluated with an MTT assay. (FIG. 12B) Secreted viral RNA of 3 SARS-CoV-2 strains in the VeroE6 culture supernatant 24 h post-inoculation was quantified by real-time RT-PCR. (FIG. 12C) Calu-3 (ATCC) cells were pretreated with Oxy232 for 2 hours prior to continuous infection with SARS-CoV-2 (isolate USA WA1/2020) at MOI=0.5. 48 h post-infection, cells were fixed, immune-strained, and imaged by automated microscopy for infection (dsRNA+ cells/total cell number) and cell number.
According to a previously published report (Ohashi et al., Identification of Anti-Severe Acute Respiratory Syndrome-Related Coronavirus 2 (SARS-CoV-2) Oxysterol Derivatives In Vitro. Int J Mol Sci. 2021; 22(6):3163. PMCID: PMC8003796) inventors have tested a collection of naturally occurring and semisynthetic oxysterol derivatives in a SARS-CoV-2 cell culture infection assay in VeroE6/TMPRSS2 cells. […] See, Ohashi et al., Int J Mol Sci. 2021; 22(6):3163 and Dittmar et al. Drug repurposing screens reveal cell-type-specific entry pathways and FDA-approved drugs active against SARS-Cov-2. Cell Rep. […] PMCID: PMC7985926. […] Without wishing to be bound by a theory, biological activities of oxysterols, including measures of cell viability, can heavily depend on in vitro assay conditions, such as the fetal bovine serum concentration or the duration of pretreatment with the compounds, among other factors, that may not translate to the in vivo safety of the compounds.

[7] = in vitro; conditions: African green monkey
[8] = in vitro; conditions: human
[9] = Severe acute respiratory syndrome coronavirus 2, VeroE6/TMPRSS2, 24 h, SARS-CoV-2 viral RNA in culture supernatant, 24 h post-inoculation, VeroE6/TMPRSS2 cells, read-out: IC90
[10] = Severe acute respiratory syndrome coronavirus 2, SARS-CoV-2 viral RNA in culture supernatant, 24 h post-inoculation, VeroE6/TMPRSS2 cells, read-out: IC50
[11] = MTT assay, 24 h, VeroE6/TMPRSS2 cells
[12] = SARS-CoV-2 viral RNA in culture supernatant, 24 h post-inoculation, VeroE6/TMPRSS2 cells, read-out: IC50
[13] = SARS-CoV-2 viral RNA in culture supernatant, 24 h post-inoculation, VeroE6/TMPRSS2 cells, read-out: IC90

Row | Compound | IC90 [1, 9] [µM] | IC50 [1, 10] [µM] | anti-SARS-CoV-2 activity [1] | SARS-CoV-2 propagation in cultured cells [1] | CC50 [2, 11] [µM] | viral RNA in the culture supernatant ([1]; 24 h post-inoculation) | further results
1 | CC(C)CC[C@@H](O)[C@@H](C)[C@H]1CC[C@H]2[C@@H]3CC=C4C[C@@H](O)CC[C@]4(C)[C@H]3CC[C@]12C [22(R)-OHC, 22(R)-hydroxycholesterol, reference compound] | > 30 | 13.2 | modest anti-SARS-CoV-2 activities | substantially inhibited SARS-CoV-2 propagation | > 30 |  | 
2 | CC(C)CC[C@H](O)[C@@H](C)[C@H]1CC[C@H]2[C@@H]3CC=C4C[C@@H](O)CC[C@]4(C)[C@H]3CC[C@]12C [22(S)-OHC, 22(S)-hydroxycholesterol, reference compound] | > 30 | > 30 |  |  | > 30 | did not show apparent reductions in viral RNA | 
3 | CC(C)[C@@H](O)CC[C@@H](C)[C@H]1CC[C@H]2[C@@H]3CC=C4C[C@@H](O)CC[C@]4(C)[C@H]3CC[C@]12C [24(S)-OHC, 24(S)-hydroxycholesterol, reference compound] | > 30 | 1.3 | modest anti-SARS-CoV-2 activities | substantially inhibited SARS-CoV-2 propagation | > 30 |  | 
4 | CCN(CC)CCCC(C)Nc1ccnc2cc(Cl)ccc12 (stereo not shown) [CLQ, chloroquine, reference compound] |  |  |  |  |  |  | viral RNA, compound present at entry ([3]; 1 h inoculation plus 2 h): showed the most inhibitory effect
5 | CC(C)CCC[C@@H](C)[C@H]1CC[C@H]2[C@@H]3CC=C4C[C@@H](O)CC[C@]4(C)[C@H]3CC[C@]12C [Cholesterol, reference compound] | > 30 | > 30 |  |  | > 30 | did not show apparent reductions in viral RNA | virus-induced CPE [4]: but not cholesterol, reduced the SARS-CoV-2-induced CPE
6 | CS(=O)(=O)c1ccc(C(=O)Nc2ccc(Cl)c(-c3ccccn3)c2)c(Cl)c1 [GDC0449, reference compound] |  |  |  |  |  |  | production of viral RNA with signaling pathway inhibitors ([1]; 24 h post-inoculation): did not decrease the viral RNA levels; also recorded: lack of antiviral activity
7 | CCCCCC[C@](C)(O)[C@H]1CC[C@H]2[C@@H]3C[C@H](O)[C@H]4C[C@@H](O)CC[C@]4(C)[C@H]3CC[C@@]21C [Oxy133, (3S,5S,6S,8R,9S,10R,13S,14S,17S)-17-((S)-2-hydroxyoctan-2-yl)-10,13-dimethyl hexadecahydro-1H-cyclopentalalphenanthrene-3,6-diol] |  |  |  |  | > 15 | did not show antiviral activity up to 15 μM | virus-induced CPE [4]: blocked when treated with Oxy210 but not Oxy133; IC50 [1, 12]: > 15 µM; IC90 [1, 13]: > 15 µM; viral RNA, compound present during the whole life cycle ([3]; 24 h): but not the negative control, Oxy133, clearly reduced viral RNA levels; viral RNA, compound present post-entry ([3]; added 2 h post-inoculation for 21 h): but not the negative control, Oxy133, clearly reduced viral RNA levels; SARS-CoV-2 propagation / spread of infection (viral N protein, immunofluorescence) [5]: blocked when treated with Oxy210 but not Oxy133
8 | C[C@]12CC[C@H](O)C[C@@H]1CC[C@@H]1[C@@H]2CC[C@@]2(C)[C@H]1CC[C@@H]2[C@](C)(O)CCc1ccc(F)cc1 [Oxy186, (3S,5S,8R,9S,10S,13S,14S,17S)-17-((R)-4-(4-fluorophenyl)-2-hydroxybutan-2-yl)-10,13-dimethylhexadecahydro-1H-cyclopenta[a]phenanthren-3-ol] | > 15 | 7.4 |  |  | > 15 | reduced viral RNA level in a dose-dependent manner | SARS-CoV-2-induced cytopathic effect ([4]; oxy8 7.5 uM, oxy16 20 uM, oxy186 20 uM, oxy210 10 uM, 48 h, VeroE6/TMPRSS2): protected cells from cytopathic effect; maximum reduction in viral RNA as compared to control ([1]; at 12 μM): 83%; cytotoxicity / cell viability ([2]; MTT assay, VeroE6/TMPRSS2 cells): No significant cytotoxicity
9 | CC(C)CCC[C@@H](C)[C@H]1CC[C@H]2[C@@H]3CC=C4[C@@H](O)[C@@H](O)CC[C@]4(C)[C@H]3CC[C@]12C [Oxy 4-beta-OHC, 4beta-hydroxysterol, reference compound] |  |  |  |  | > 30 | did not show apparent reductions in viral RNA | IC50 [1, 12]: > 30 µM; IC90 [1, 13]: > 30 µM
10 | CC(C)CCC[C@@H](C)[C@H]1CC[C@H]2[C@@H]3C(=O)C=C4C[C@@H](O)CC[C@]4(C)[C@H]3CC[C@]12C [Oxy 7-KC, 7-ketocholesterol, reference compound] | > 30 | 14.5 | modest anti-SARS-CoV-2 activities | substantially inhibited SARS-CoV-2 propagation | > 30 |  | virus-induced CPE [4]: reduced the SARS-CoV-2-induced CPE; SARS-CoV-2-induced cytopathic effect (CPE) ([4]; 48 h, VeroE6/TMPRSS2): inhibited SARS-CoV-2-induced cytopathic effect; SARS-CoV-2 propagation / spread of infection (viral N protein, immunofluorescence) [5]: reduced
11 | C[C@@H](CO)CCC[C@@H](C)[C@H]1CC[C@H]2[C@@H]3CC=C4C[C@@H](O)CC[C@]4(C)[C@H]3CC[C@]12C [Oxy 27-OHC, 27-hydroxycholesterol, reference compound] | > 30 | 3.5 | modest anti-SARS-CoV-2 activities | substantially inhibited SARS-CoV-2 propagation | > 30 |  | SARS-CoV-2-induced cytopathic effect (CPE) ([4]; 48 h, VeroE6/TMPRSS2): inhibited SARS-CoV-2-induced cytopathic effect
12 | CCC(CC)COC(=O)[C@H](C)N[P@](=O)(OC[C@H]1O[C@@](C#N)(c2ccc3c(N)ncnn23)[C@H](O)[C@@H]1O)Oc1ccccc1 [RDV, remdesivir, reference compound] | 2.5 | 1.5 |  |  |  |  | IC50 ([1]; Severe acute respiratory syndrome coronavirus 2, Vero C1008, read-out: IC50 (VeroE6)): 1.5 µM; IC90 ([1]; Severe acute respiratory syndrome coronavirus 2, Vero C1008, read-out: IC90 (VeroE6), SARS-CoV-2, VeroE6): 1.5 µM; IC50 ([6]; read-out: IC50 (Calu-3)): 80 nM; IC90 ([6]; read-out: IC90 (Calu-3)): 160 nM; CC50 [7]: > 10 µM; CC50 ([2]; read-out: CC50 (VeroE6), VeroE6): > 10 µM; CC50 [8]: > 10 µM
13 | NC(=O)c1ccc(-c2nc(-c3ccc4c(c3)OCO4)c(-c3ccccn3)[nH]2)cc1 [SB431542, reference compound] |  |  |  |  |  |  | production of viral RNA with signaling pathway inhibitors ([1]; 24 h post-inoculation): did not significantly inhibit the production of viral RNA; also recorded: lack of antiviral activity
